Assay results published in US10004732B2 (Novartis AG, priority 2014, dated 2018).
Counter-ions that a name gives are not always drawn. Like-named read-outs stand apart in the source and are kept apart here.

Legend:
PI 3-kinase alpha [1] = target: T1, PI 3-kinase alpha (Homo sapiens, UniProt P42336); assay: Kinase Glo Luminescent Kinase Assay (Kglo), assay A; type: biochemical; settings: read-out: Assay A PI3Kα IC50
Target sequence in this assay (P42336 whole entry): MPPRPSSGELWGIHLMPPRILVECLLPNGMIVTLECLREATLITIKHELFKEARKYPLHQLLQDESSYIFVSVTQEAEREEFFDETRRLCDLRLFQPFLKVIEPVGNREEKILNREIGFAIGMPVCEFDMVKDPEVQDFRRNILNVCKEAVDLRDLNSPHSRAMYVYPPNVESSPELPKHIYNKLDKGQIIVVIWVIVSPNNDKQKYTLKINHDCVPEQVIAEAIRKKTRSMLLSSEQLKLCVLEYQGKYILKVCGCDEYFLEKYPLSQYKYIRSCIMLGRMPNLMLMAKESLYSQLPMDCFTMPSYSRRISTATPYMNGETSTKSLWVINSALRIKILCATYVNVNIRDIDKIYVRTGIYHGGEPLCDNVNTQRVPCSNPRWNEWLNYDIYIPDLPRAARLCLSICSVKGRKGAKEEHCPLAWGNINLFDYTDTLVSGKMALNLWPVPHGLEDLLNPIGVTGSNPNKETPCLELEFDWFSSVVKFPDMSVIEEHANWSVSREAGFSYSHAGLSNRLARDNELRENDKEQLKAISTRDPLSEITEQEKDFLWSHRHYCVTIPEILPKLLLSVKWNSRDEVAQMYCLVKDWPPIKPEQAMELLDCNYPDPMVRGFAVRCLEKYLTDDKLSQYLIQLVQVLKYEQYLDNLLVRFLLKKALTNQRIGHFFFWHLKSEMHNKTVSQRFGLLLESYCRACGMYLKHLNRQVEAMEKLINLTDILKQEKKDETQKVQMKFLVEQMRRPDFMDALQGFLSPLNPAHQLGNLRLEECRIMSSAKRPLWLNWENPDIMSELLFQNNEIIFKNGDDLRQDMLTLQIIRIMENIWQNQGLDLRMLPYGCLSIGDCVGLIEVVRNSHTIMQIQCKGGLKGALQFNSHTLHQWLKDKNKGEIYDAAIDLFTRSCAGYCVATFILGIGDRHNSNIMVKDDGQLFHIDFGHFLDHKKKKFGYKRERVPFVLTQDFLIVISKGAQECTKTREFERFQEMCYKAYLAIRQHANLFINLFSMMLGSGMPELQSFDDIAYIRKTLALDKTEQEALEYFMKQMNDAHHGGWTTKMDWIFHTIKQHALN

PI 3-kinase beta [2] = target: T2, PI 3-kinase beta (Homo sapiens, UniProt P42338); assay: Kinase Glo Luminescent Kinase Assay (Kglo), assay B; type: biochemical; settings: read-out: Assay B PI3Kβ IC50
Vps34 = Vps34 (Homo sapiens, UniProt Q8NEB9); assay: Kinase Glo Luminescent Kinase Assay (Kglo), assay C; type: biochemical; settings: read-out: Assay C VPS34 IC50
Sequence of Vps34 (Q8NEB9 whole entry, species assumed): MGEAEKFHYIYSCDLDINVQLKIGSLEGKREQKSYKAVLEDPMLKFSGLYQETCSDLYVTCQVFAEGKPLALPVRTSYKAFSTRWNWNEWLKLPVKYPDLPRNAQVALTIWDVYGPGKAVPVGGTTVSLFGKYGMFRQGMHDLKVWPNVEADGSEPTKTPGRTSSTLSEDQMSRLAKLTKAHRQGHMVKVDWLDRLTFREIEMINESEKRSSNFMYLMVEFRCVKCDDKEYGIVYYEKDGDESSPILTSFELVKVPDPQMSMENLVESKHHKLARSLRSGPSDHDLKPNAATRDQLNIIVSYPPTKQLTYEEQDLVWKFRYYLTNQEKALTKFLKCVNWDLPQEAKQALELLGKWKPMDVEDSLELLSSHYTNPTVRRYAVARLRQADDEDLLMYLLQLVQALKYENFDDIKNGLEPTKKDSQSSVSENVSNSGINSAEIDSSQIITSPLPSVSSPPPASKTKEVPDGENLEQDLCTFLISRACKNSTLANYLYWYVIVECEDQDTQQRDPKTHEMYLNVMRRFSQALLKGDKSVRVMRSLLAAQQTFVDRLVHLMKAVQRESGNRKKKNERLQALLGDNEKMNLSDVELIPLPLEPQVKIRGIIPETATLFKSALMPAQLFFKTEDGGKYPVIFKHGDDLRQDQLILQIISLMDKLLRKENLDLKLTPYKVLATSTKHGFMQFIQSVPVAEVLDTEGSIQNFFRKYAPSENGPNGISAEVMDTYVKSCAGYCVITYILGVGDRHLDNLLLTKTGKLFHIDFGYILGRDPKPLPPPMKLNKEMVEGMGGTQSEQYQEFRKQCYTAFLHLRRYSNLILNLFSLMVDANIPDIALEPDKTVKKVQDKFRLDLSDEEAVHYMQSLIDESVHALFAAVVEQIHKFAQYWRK
Protocol: Kinase Glo Luminescent Kinase Assay (Kglo) for Pb 3-Kinase Alpha (A), Pb 3-Kinase Beta (B), Vps34 (C), Pb 4-Kinase Beta (D)
The Kinase Glo Luminescent Kinase Assay (Promega, Madison/Wis., USA) is a homogeneous HTS method of measuring kinase activity by quantifying the amount of ATP remaining in solution following a kinase reaction.
L-α-phosphatidylinositol (PI), provided as 10 mg/ml solution in methanol, was transferred into a glass tube and dried under a nitrogen beam. It was then resuspended in 3% OctylGlucoside (1-0-n-octyl-beta-D-glucopyranoside) by vortexing and stored at 4° C. 5 μL of a mix of PI/OctylGlucoside with the PI 3-kinase alpha and PI 3-kinase beta subtypes, or Vps34 or PI 4-kinase beta were added. Kinase reactions were started by the addition of 5 μl of an ATP-mix containing in a final volume 10 μL 10 mM TRIS-HCl pH 7.5, 3 mM MgCl2, 50 mM NaCl, 0.05% CHAPS, 1 mM DTT and 1 μM ATP at room temperature.
All fits were performed with the program XLfit4 (ID Business Solutions, Guildford, UK).

PI 4-kinase beta = PI 4-kinase beta (Homo sapiens, UniProt Q9UBF8); assay: Kinase Glo Luminescent Kinase Assay (Kglo), assay D; type: biochemical; settings: read-out: Assay D PI4Kβ IC50
PI 3-kinase gamma [3] = target: T3, PI 3-kinase gamma (Homo sapiens, UniProt P48736); assay: TR-FRET Adapta assay, assay E; type: biochemical; settings: read-out: Assay E PI3Kγ IC50
T3 sequence (P48736 whole entry): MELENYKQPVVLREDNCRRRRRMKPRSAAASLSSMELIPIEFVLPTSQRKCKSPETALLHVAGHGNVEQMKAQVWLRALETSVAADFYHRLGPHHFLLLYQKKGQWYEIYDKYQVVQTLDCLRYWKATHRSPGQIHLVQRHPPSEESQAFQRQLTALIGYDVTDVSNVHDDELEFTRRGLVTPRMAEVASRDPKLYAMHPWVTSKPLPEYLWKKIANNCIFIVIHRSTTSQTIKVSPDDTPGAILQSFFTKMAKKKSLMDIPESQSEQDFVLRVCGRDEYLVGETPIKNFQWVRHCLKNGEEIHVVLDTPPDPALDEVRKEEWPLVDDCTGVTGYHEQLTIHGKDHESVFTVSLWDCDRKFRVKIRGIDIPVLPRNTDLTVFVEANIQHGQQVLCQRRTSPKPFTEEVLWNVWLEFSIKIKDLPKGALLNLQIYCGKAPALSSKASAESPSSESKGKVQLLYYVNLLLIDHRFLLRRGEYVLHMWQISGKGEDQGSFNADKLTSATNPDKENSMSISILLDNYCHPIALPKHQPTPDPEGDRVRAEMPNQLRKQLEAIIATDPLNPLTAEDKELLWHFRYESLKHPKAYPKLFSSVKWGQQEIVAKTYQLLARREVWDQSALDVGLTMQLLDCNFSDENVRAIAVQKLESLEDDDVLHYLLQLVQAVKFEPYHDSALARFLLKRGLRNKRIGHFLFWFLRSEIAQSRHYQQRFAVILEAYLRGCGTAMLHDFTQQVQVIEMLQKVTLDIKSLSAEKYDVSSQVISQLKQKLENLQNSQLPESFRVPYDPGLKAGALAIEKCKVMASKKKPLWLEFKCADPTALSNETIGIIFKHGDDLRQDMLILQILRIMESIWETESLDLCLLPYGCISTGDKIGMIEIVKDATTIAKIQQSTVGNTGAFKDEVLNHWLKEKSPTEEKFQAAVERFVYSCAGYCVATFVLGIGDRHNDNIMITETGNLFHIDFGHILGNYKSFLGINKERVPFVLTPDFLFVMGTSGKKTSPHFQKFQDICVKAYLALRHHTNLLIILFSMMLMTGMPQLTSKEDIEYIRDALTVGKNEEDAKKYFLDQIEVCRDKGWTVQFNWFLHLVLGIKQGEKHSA

mTOR = mTOR (Homo sapiens, UniProt P42345); assay: Lanthascreen kinase binding assay, assay G; settings: read-out: Assay G mTOR IC50
Protocol: Lanthascreen™ Kinase Binding Assay for mTOR (G)
Binding of an inhibitor to the kinase competes for binding with the tracer, resulting in a loss of FRET.
50 nL of compound dilutions were dispensed onto white 384-well small volume polystyrene plate.

PI 3-kinase gamma [4] = target: T3, PI 3-kinase gamma; assay: Cellular U937 AKT assay K1 (MSD); type: cell-based; settings: U937 cells, K1 format; read-out: Assay K1 PI3Kγ IC50
[5] = system: IL-8-induced neutrophil shape change in human whole blood; assay: Whole blood neutrophil shape change assay (L); type: cell-based; settings: IL-8, human whole blood, read-out: Assay L WBSC IC50
PI 3-kinase delta [6] = target: T4, PI 3-kinase delta (Homo sapiens, UniProt O00329); assay: TR-FRET Adapta assay, assay F; settings: read-out: Assay F PI3Kδ IC50
Target sequence in this assay (O00329 whole entry): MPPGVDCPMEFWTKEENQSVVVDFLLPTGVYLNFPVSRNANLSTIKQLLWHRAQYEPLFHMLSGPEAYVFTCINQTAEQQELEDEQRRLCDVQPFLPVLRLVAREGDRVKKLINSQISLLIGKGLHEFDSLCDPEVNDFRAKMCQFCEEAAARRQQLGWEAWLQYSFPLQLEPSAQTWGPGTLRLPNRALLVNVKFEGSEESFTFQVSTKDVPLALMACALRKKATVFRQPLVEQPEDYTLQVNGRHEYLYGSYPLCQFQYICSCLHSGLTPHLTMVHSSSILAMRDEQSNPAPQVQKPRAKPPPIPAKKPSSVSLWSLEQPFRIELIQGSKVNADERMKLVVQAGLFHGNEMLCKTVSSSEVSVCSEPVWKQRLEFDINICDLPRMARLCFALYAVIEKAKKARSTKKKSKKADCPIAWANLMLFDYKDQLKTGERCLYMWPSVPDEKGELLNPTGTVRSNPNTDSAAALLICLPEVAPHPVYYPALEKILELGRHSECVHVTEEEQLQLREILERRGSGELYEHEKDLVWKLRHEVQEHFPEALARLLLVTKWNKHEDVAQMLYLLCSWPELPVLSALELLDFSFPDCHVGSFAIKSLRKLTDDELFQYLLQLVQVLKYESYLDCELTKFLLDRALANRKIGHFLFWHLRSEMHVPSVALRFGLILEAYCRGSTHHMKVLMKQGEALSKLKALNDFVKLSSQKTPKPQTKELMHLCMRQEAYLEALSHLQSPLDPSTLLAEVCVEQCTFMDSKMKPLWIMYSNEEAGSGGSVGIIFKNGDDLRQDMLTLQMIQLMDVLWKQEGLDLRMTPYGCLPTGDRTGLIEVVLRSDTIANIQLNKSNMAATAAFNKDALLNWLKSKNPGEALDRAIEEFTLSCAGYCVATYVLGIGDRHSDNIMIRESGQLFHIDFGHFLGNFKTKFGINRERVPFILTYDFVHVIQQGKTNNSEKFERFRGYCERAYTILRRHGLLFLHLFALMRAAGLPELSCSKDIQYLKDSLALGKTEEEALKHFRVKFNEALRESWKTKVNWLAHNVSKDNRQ
Target sequence in this assay (P27986 461-568 partner): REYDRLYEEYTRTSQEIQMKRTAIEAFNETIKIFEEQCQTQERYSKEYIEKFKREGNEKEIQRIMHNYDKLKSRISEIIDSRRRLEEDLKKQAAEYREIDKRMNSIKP

[7] = Microsomal clearance assay (M); settings: intrinsic clearance in rat liver microsomes
Protocol: The experiments were performed in 96-well glass plates at 37° C. on an automated Tecan EVO platform. Test compounds at a concentration of 10 mM in pure DMSO were diluted 1:1000 in water to 10 μM. […] Reactions were initiated by the addition of 150 μL of a cofactor solution containing 2 mM NADPH.

PI 3-kinase alpha [8] = target: T1, PI 3-kinase alpha; assay: Cellular assay H1, p-Akt (S473) in Rat-1 cells, Surefire format; type: cell-based; settings: non-asterisked data: version H1 (Surefire format), Rat-1 cells; read-out: Assay H PI3Kα IC50
Target sequence in this assay (P42336 whole entry): as the sequence (P42336 whole entry) above
Target sequence in this assay (Q63787 whole entry partner): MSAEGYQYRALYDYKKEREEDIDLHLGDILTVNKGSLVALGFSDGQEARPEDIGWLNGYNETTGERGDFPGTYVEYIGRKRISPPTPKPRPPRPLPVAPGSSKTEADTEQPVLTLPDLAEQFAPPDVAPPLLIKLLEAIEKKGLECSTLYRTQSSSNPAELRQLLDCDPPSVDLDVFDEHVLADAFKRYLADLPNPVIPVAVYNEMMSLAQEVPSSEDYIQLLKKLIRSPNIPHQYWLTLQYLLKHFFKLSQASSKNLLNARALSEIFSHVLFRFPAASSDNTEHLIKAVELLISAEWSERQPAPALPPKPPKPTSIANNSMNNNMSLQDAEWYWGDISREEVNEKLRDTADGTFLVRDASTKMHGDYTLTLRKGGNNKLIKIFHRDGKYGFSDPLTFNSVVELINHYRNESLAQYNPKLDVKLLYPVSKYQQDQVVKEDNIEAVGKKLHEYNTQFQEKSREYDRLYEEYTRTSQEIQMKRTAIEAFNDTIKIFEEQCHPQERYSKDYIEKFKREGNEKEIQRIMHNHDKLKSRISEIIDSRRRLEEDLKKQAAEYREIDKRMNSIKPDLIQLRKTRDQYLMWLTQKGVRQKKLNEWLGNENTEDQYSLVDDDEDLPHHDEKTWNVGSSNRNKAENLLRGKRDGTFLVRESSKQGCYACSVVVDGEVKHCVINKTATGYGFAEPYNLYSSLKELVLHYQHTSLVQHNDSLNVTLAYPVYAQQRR

PI 3-kinase beta [9] = target: T2, PI 3-kinase beta; assay: Cellular assay I1, p-Akt (S473) in Rat-1 cells, Surefire format; type: cell-based; settings: non-asterisked data: version I1 (Surefire format), Rat-1 cells; read-out: Assay I PI3Kβ IC50
PI 3-kinase delta [10] = target: T4, PI 3-kinase delta; assay: Cellular assay J1, p-Akt (S473) in Rat-1 cells, Surefire format; type: cell-based; settings: non-asterisked data: version J1 (Surefire format), Rat-1 cells; read-out: Assay J PI3Kδ IC50
Target sequence in this assay (O00329 whole entry): as the sequence (O00329 whole entry) above
Target sequence in this assay (Q63787 whole entry partner): as the sequence (Q63787 whole entry partner) above
Description: Cellular Assays for PI 3-Kinase Alpha (H1), Beta (I1) and Delta (J1): Surefire Format
AlphaScreen (Amplified Luminescent Proximity Homogeneous Assay, ALPHA, Perkin Elmer) is a non-radioactive bead-based proximity assay technology to study biomolecular interactions in a homogenous microtiter plate format. The brand name SureFire denotes AlphaScreen assays that are adapted to quantify the phosphorylation of endogenous cellular proteins in cell lysates, by using matched antibody pairs, which consist of an anti-phospho-kinase and an anti-kinase antibody. The assay allows characterization of kinase signaling in cells as well as measurement of kinase inhibitor effects.
Using Rat-1 cells stably expressing myr-HA-tagged versions of the human PI3Kdelta, PI3Kalpha, or PI3Kbeta p110 catalytic subunit isoforms, the assay was developed as a two-plate protocol in a 384-well format.
For compound testing, the cells were seeded at a density of 4000 (Rat-1_PI3Kdelta), 7500 (Rat-1_PI3Kalpha), or 6200 (Rat-1_PI3Kbeta) cells in 20 μl complete growth medium into cell culture treated 384-well plates and were grown at 37° C./5% CO2/90% humidity for 24 h. Shortly before compound transfer, the complete medium was removed, 30 μl assay buffer (DMEM high glucose, 1×MEM NEAA, 10 mM HEPES, 2 mM L-glutamine, 0.1% (w/v) BSA) was added and 10 μl of the compound predilutions were transferred to the cells.

SMILES | IC50 (PI 3-kinase alpha [1]) [nM] | IC50 (PI 3-kinase beta [2]) [nM] | IC50 (Vps34) [nM] | IC50 (PI 4-kinase beta) [nM] | IC50 (PI 3-kinase gamma [3]) [nM] | IC50 (mTOR) [nM] | IC50 (PI 3-kinase gamma [4]) [nM] | IC50 ([5]; Homo sapiens, Neutrophil) [nM] | IC50 (PI 3-kinase delta [6]) [nM] | Assay M RLM CI(int) [7] [µL/min/mg] | IC50 (PI 3-kinase alpha [8]) [nM] | IC50 (PI 3-kinase beta [9]) [nM] | IC50 (PI 3-kinase delta [10]) [nM] | IC50 [5] [nM]
Cc1ccc(S(=O)(=O)NCCC(C)(C)O)cc1-c1cnc(N)c(-c2ccc(CO)s2)n1 [Example 119.35] | 80 | 940 | > 9100 | 740 | 13 | 3900 | 18 | 1020 | 70 | 78 | – | – | – | –
Cc1ccc(S(=O)(=O)NC[C@H]2CCOC2)cc1-c1cnc(N)c(-n2cncn2)n1 [Example 127.27] | 200 | 1800 | > 10000 | 8700 | 26 | 9600 | 242 | 1090 | 790 | – | – | – | – | –
Cc1ccc(S(=O)(=O)NCC2(O)COC2)cc1-c1cnc(N)c(-n2cncn2)n1 [Example 127.47] | 1100 | 2200 | > 10000 | 6600 | 60 | > 10000 | 266 | 2180 | 3200 | – | – | – | – | –
Cc1ccc(S(=O)(=O)NCC(F)F)cc1-c1cnc(N)c(-n2cncn2)n1 [Example 34, 3-(5-Amino-6-[1,2,4]triazol-1-yl-pyrazin-2-yl)-N-(2,2-difluoro-ethyl)-4-methyl-benzenesulfonamide] | 700 | 2500 | > 10000 | 3800 | 74 | 2500 | 137 | 805 | 2900 | 52 | – | – | – | –
Cc1ccc(S(=O)(=O)NCC2(O)CC2)cc1-c1cnc(N)c(-n2cncn2)n1 [Example 28, 3-(5-Amino-6-[1,2,4]triazol-1-yl-pyrazin-2-yl)-N-(1-hydroxy-cyclopropylmethyl)-4-methyl-benzenesulfonamide] | 680 | 4300 | > 9100 | 8900 | 26 | > 9100 | 280 | 759 | 560 | 34 | – | – | – | –
Cc1ccc(S(=O)(=O)NC[C@H]2CCCO2)cc1-c1cnc(N)c(-n2cncn2)n1 [Example 127.14] | 920 | 2600 | > 10000 | 8450 | 69 | 9000 | 645 | 1790 | 900 | – | – | – | – | –
COCCCNS(=O)(=O)c1ccc(C)c(-c2cnc(N)c(-c3ccnc(C)c3)n2)c1 [Example 129.11, 3-(5-amino-6-(2-methylpyridin-4-yl)pyrazin-2-yl)-N-(3-methoxypropyl)-4-methylbenzenesulfonamide] | 640 | > 9100 | > 9100 | > 9100 | 173 | > 9100 | – | 5680 | 790 | 105 | 2730 | 8380 | 3330 | –
Cc1ccc(S(=O)(=O)NCC2CCCOC2)cc1-c1cnc(N)c(-n2cncn2)n1 (stereo not drawn) [Example 127.19] | 260 | 1300 | > 10000 | 3900 | 61 | > 10000 | 153 | 1620 | 620 | – | – | – | – | –
Cc1ccc(S(=O)(=O)N[C@H]2C[C@H](O)C2)cc1-c1cnc(N)c(-n2cncn2)n1 [Example 71a, 3-(5-Amino-6-(1H-1,2,4-triazol-1-yl)pyrazin-2-yl)-N-((1r,3r)-3-hydroxycyclobutyl)-4-methylbenzenesulfonamide] | 330 | 1100 | > 10000 | 2800 | 13 | > 10000 | – | – | 1000 | 18 | 3060 | 8020 | 3650 | 763
Cc1ccc(S(=O)(=O)NCC2(C(N)=O)CC2)cc1-c1cnc(N)c(-n2cncn2)n1 [Example 127.56] | 420 | 1200 | > 10000 | > 10000 | 73 | 7400 | – | 715 | 1400 | 25 | 9610 | 3560 | 6000 | –
CC(C)(O)CCNS(=O)(=O)c1ccc(Cl)c(-c2cnc(N)c(-n3cncn3)n2)c1 [Example 38, 3-(5-Amino-6-(1H-1,2,4-triazol-1-yl)pyrazin-2-yl)-4-chloro-N-(3-hydroxy-3-methylbutyl)benzenesulfonamide] | 920 | 3500 | > 9100 | 4200 | 25 | 8400 | – | 3380 | 140 | 89 | 3020 | 2110 | 2360 | –
Cc1ccc(S(=O)(=O)N2CCCC(F)(F)C2)cc1-c1cnc(N)c(-n2cncn2)n1 [Example 127.1] | 290 | 1200 | > 10000 | 1500 | 11 | 1100 | – | 2470 | 560 | 907 | 1570 | > 10000 | 1140 | –
Cc1ccc(S(=O)(=O)NCCC(C)(C)O)cc1-c1cnc(N)c(-c2ccc(C3CC3)s2)n1 [Example 119.46] | 250 | – | > 9100 | 610 | 110 | 6700 | 81 | 9190 | 70 | 122 | – | – | – | –
Cc1ccc(S(=O)(=O)NC[C@@H]2CCNC2)cc1-c1cnc(N)c(-n2cncn2)n1 [Example 127.57, (R)-3-(5-amino-6-(1H-1,2,4-triazol-1-yl)pyrazin-2-yl)-4-methyl-N-(pyrrolidin-3-ylmethyl)benzenesulfonamide trifluoroacetic acid salt] | 1400 | 730 | > 10000 | 5900 | 50 | 5000 | – | 13800 | 760 | 21 | > 10000 | > 10000 | > 10000 | –
Cc1ccc(S(=O)(=O)NCC(C)(F)F)cc1-c1cnc(N)c(-n2cncn2)n1 [Example 127.43] | 560 | 1700 | > 10000 | 2900 | 95 | 8800 | 275 | 1640 | 3400 | – | – | – | – | –
CC(C)(O)CNS(=O)(=O)c1ccc(Cl)c(-c2cnc(N)c(-n3cncn3)n2)c1 [Example 37, 3-(5-Amino-6-(1H-1,2,4-triazol-1-yl)pyrazin-2-yl)-4-chloro-N-(2-hydroxy-2-methylpropyl)benzenesulfonamide] | 1000 | 3500 | > 9100 | 3500 | 83 | 5900 | – | 1550 | 730 | 33 | 7910 | 1890 | 5920 | –
CCn1ncc(-c2nc(-c3cc(S(=O)(=O)NCC(C)(C)O)ccc3C)cnc2N)n1 [Example 82, 3-(5-Amino-6-(2-ethyl-2H-1,2,3-triazol-4-yl)pyrazin-2-yl)-N-(2-hydroxy-2-methylpropyl)-4-methylbenzenesulfonamide] | 180 | 5500 | > 10000 | > 10000 | 41 | > 10000 | – | 825 | 540 | 25 | 860 | 2980 | 610 | –
Cc1ccc(S(=O)(=O)NCCC2(O)CCCC2)cc1-c1cnc(N)c(-n2cncn2)n1 [Example 127.36] | 190 | 1900 | > 10000 | 5300 | 24 | 7600 | 126 | 3850 | 790 | – | – | – | – | –
